{
  "source": "patent US11213548B2",
  "about": "“Modulatable switch for selection of donor modified cells” (CSL Behring Gene Therapy, Inc., priority 2017, dated 2022)",
  "type_in_all_cases": "cell-based",
  "key": {"[1]": {"tested_on": "K562 cells", "assay": "Positive selection with 6TG of HPRT knockdown / knockout K562 cells (ex vivo)", "description": "K562 cells were transduced with a vector including a nucleic acid sequence designed to knockdown HPRT and a nucleic acid sequence encoding the green fluorescent protein (GFP) (MOI=1/2/5); or were transfected with a nanocapsule including CRISPR/Cas9 and a sgRNA to HPRT (100 ng/5×10^4 cells) at day zero (0). 6-TG was added into the medium from day 3 through day 14. The medium was refreshed every 3 to 4 days. GFP was analyzed on flow machine and InDel % as analyzed with T7E1 assay. FIG. 9A illustrates that the GFP+ population of transduced K562 cells increased from day 3 to day 14 under treatment of 6TG; while the GFP+ population was almost steady without 6-TG treatment. […] It should be noted that 6TG selection process occurred much faster on HPRT knockout cells as compared with the HPRT knockdown cells (MOI=1) at the same concentration of 300 nM of 6TG from day 3 to day 14. The difference between knockdown and knockout could be explained by some level of residual HPRT by the RNAi knockdown approach as compared with the full elimination of HPRT by the knockout approach. Therefore, HPRT-knockout cells were believed to have a much higher tolerance against 6TG and are believed to grow much faster at higher dosages of 6TG (900 nM) compared with HPRT-knockdown cells."}, "[2]": {"tested_on": "CEM cells", "assay": "Positive selection with 6TG of HPRT knockdown / knockout CEM cells (ex vivo)", "description": "CEM cells were transduced with a vector including a nucleic acid sequence designed to knockdown HPRT and a nucleic acid sequence encoding the green fluorescent protein or transfected with a nanocapsule including CRISPR/Cas9 and a sgRNA to HPRT at day 0. 6-TG was added into the medium from day 3 to day 17. The medium was refreshed every 3 to 4 days. GFP as analyzed on flow machine and InDel % is analyzed by T7E1 assay. FIG. 10A illustrates that the GFP+ population of transduced […] cells increased from day 3 to day 17 under treatment of 6TG while GFP+ population was almost steady without 6-TG. […] It should be noted that 6TG selection process occurred faster on HPRT knockout cells rather than HPRT knockdown cells (MOI=1) at the same concentration of 6TG from day 3 to day 17."}, "[3]": {"tested_on": "K562 cells", "assay": "Negative selection with MTX for K562 cells transduced with different lentiviral vector designs", "description": "K562 cells were transduced with either TL20cw-GFP virus soup at dilution factor of 16, TL2Ocw-Ubc/GFP-7SK/sh734 (one sequentially encoding GFP and a shRNA designed to knockdown HPRT) virus soup at dilution factor of 16 and TL2Ocw-7SK/sh734-UBC/GFP (one sequentially encoding a shRNA designed to knockdown HPRT and GFP) virus soup at dilution factor of 16, respectively (see FIG. 13). All cells were cultured with medium containing 0.3 uM of MTX 3 days later. Also shown in FIG. 13 are K562 cells which were transduced by TL20cw-7SK/sh734-UBC/GFP (one encoding a nucleic acid encoding a shRNA designed to knockdown HPRT) virus soup at dilution factor of 1024 one month earlier and where GFP-sh734-transduced cells were positively selected with 300 nM of 6TG 6-TG was selection during that time to reach more than 90% of GFP+ population. […] The relative sh734 expression per VCN for sh734-GFP-transduced cells and GFP-sh73-transduced cells were measured."}, "[4]": {"tested_on": "CEM cells", "assay": "Negative selection with MTX or MPA of transduced or transfected CEM cells", "conditions": "day 0 to day 14; for GFP population of transduced cells under treatment: CEM experiment (K562 in the source), steady for untreated group"}, "[5]": {"tested_on": "K562 cells", "assay": "Negative selection with MTX of transduced or transfected K562 cells", "conditions": "0.3 uM MTX, day 0 to day 14", "description": "Transduced or transfected K562 cells (such as those from Example 6) were cultured with or without MTX from day 0 to day 14. The medium was refreshed every 3 to 4 days. GFP was analyzed on flow machine and InDel % was analyzed by T7E1 assay. […] FIG. 11B illustrates that the transfected K562 cells were eliminated under treatment with 0.3 uM of MTX at a faster pace as compared with the HPRT-KD population."}},
  "data": [
    {"smiles": "Nc1nc2nc[nH]c2c(=S)[nH]1", "note": "[6TG, 6-thioguanine]", "values": [
      {"measurement": "Speed of selection of HPRT knockout K562 cells, higher dosage versus 300/600 nM of 6TG", "setting": "[1]; 900 nM 6TG compared with 300/600 nM, day 3 to 14", "result": "faster selection"},
      {"measurement": "HPRT knockout population of K562 cells under treatment of 6TG", "setting": "[1]; CRISPR/Cas9 + sgRNA to HPRT nanocapsule, day 3 to 14, InDel % by T7E1 assay", "result": "increased"},
      {"measurement": "GFP+ population of transduced K562 cells under treatment of 6TG", "setting": "[1]; HPRT knockdown vector with GFP, MOI=1/2/5, 6-TG in medium day 3 to day 14, flow, almost steady without 6-TG", "result": "increased"},
      {"measurement": "Speed of 6TG selection on HPRT knockout cells compared with HPRT knockdown cells (MOI=1)", "setting": "[1]; K562, 300 nM 6TG, day 3 to day 14", "result": "much faster"},
      {"measurement": "Speed of selection of HPRT knockout CEM cells, higher dosage versus 300/600 nM of 6TG", "setting": "[2]; 900 nM 6TG compared with 300/600 nM, day 3 to 17", "result": "faster selection"},
      {"measurement": "GFP+ population of transduced cells under treatment of 6TG", "setting": "[2]; CEM experiment (K562 in the source), HPRT knockdown vector with GFP, 6-TG day 3 to day 17, almost steady without 6-TG", "result": "increased"},
      {"measurement": "Speed of 6TG selection on HPRT knockout cells compared with HPRT knockdown cells (MOI=1)", "setting": "[2]; CEM, same concentration of 6TG, day 3 to day 17", "result": "faster"},
      {"measurement": "HPRT knockout population of CEM cells under treatment of 6TG", "setting": "[2]; CRISPR/Cas9 + sgRNA to HPRT nanocapsule, day 3 to 17, InDel % by T7E1 assay", "result": "increased"},
      {"measurement": "GFP+ population reached by positive selection with 6TG", "setting": "[3]; 300 nM 6TG, K562 transduced at dilution factor of 1024 one month earlier", "result": "more than 90%"}
    ]},
    {"smiles": "COc1c(C)c2c(c(O)c1C/C=C(\\C)CCC(=O)O)C(=O)OC2", "note": "[MPA, mycophenolic acid]", "values": [
      {"measurement": "GFP population of transduced cells under treatment", "setting": "[4]; 1 uM MPA", "result": "decreased"},
      {"measurement": "HPRT knockout population of CEM cells under treatment", "setting": "[4]; 1 uM MPA", "result": "eliminated at a faster pace"},
      {"measurement": "GFP population of transduced cells under treatment", "setting": "[4]; 10 uM MPA", "result": "decreased"},
      {"measurement": "HPRT knockout population of CEM cells under treatment", "setting": "[4]; 10 uM MPA", "result": "eliminated at a faster pace"}
    ]},
    {"smiles": "CN(Cc1cnc2nc(N)nc(N)c2n1)c1ccc(C(=O)N[C@@H](CCC(=O)O)C(=O)O)cc1", "note": "[MTX, methotrexate]", "values": [
      {"measurement": "Deselection of transduced K562 cells by methotrexate", "setting": "[3]; 0.3 uM MTX, sh734-high-expression versus sh734-low-expression lentiviral vector", "result": "could only deselect cells transduced with sh734-high-expression lentiviral vector"},
      {"measurement": "GFP population of transduced cells under treatment", "setting": "[4]; 0.3 uM MTX", "result": "decreased"},
      {"measurement": "HPRT knockout population of CEM cells under treatment", "setting": "[4]; 0.3 uM MTX", "result": "eliminated at a faster pace"},
      {"measurement": "GFP population of transduced K562 cells under treatment of MTX", "setting": "[5]; HPRT knockdown, steady without MTX", "result": "decreased"},
      {"measurement": "Transfected (HPRT knockout) K562 cells under treatment with MTX", "setting": "[5]; faster pace than HPRT-KD population", "result": "eliminated"}
    ]}
  ]
}
